Source: US5179089A, “Isoquinoline compounds, compositions and use” (Chinoin Gyogyszer es Vegyeszeti Termekek Gyara Rt., priority 1990, dated 1993)
Counter-ions that a name gives are not always drawn. Like-named read-outs stand apart in the source and are kept apart here. Values belong to the molecule of their own block, whether it stands above or below them.

Columns and labels:
[1] = tested on: dextran-induced rat paw edema; assay: Dextran-induced rat paw edema test; type: in vivo; details: for Percentage of inhibition: 50 mg/kg (p.o.)
Experimental: 3) Dextran-induced rat paw edema test The method of S. Gourvaisier and R. Ducrot [Arch. Int. Pharmacodyn. Ther. 102, 33 (1955)] was employed. The method described for the carrageenin edema test was followed, except that the measurements were carried out 30, 60, 90, 120 and 180 minutes after induction of the inflammation.

[2] = tested on: carrageenin-induced rat paw edema; assay: Carrageenin-induced rat paw edema test; type: in vivo, rat (female CFY); details: for Protective effect %: oral dose 20 mg/kg (Naproxen); for change in vivo at 50 mg/kg: Rattus norvegicus, po, 50 mg/kg (p.o.), read-out: Percentage of the protective effect
Experimental: Proc. Soc. Exp. Med. 111, 544 (1962)]. Female CFY rats weighing 100 to 120 g each were used after starvation for 24 hours. The inflammation was induced by injecting 0.1 ml of 1% carrageenin solution into the right hind paw plant. The severity of inflammation was determined by using an Ugo-Basile type plethysmometer. The measurement was carried out before and 1.5, 3 and 4.5 hours after induction of the inflammation. The animals were orally treated with the substance to be tested 1 hour before administration of carrageenin. The effect was expressed as percentage inhibition related to the control group.

[3] = tested on: active local anaphylactic reaction; assay: Effect influencing the active local anaphylactic reaction on rat; type: in vivo, rat (female OFA); details: for Percentage of inhibition of the active local anaphylactic reaction: oral dose of 50 mg/kg, 30th minute after induction
Experimental: 1) The effect influencing the active local anaphylactic reaction was measured according to the method of M. Koltay [Arch. Allergy App. Immun. 71, 181 (1983)].
Female OFA rats weighing 160 to 180 g each were sensitized by bovine serum albumin (BSA) adsorbed to 50 μg of Al(OH)3 gel together with the simultaneous administration of Bordatella pertussis vaccine.
The anaphylactic reaction was elicited by injecting 100 μg of BSA into the right hind paw plant in the 14th day.
The measurements were carried out before and 30 minutes after eliciting the reaction. The animals were orally treated with the compound to be tested 1 hour before the injection of BSA. The results were expressed as percentage inhibition compared to the control group (average %±S.E.M.).

[4] = tested on: histamine-induced constriction of isolated tracheal smooth muscle of guinea pig; assay: Inhibition of the histamine-induced constriction of isolated tracheal smooth muscle of guinea pig; details: Cavia porcellus, 0.25 h, isolated guinea pig trachea, read-out: Inhibition of the histamine-induced constriction of isolated tracheal smooth muscle of guinea pig pd'2 (converted)
Experimental: I Study on the Effects Against Spasmogenic Mediators [modified method of J. C. […] The investigation on isolated organs were carried out as follows. OHF Lt/R9 guinea pigs of both sexes weighing 300 to 400 g each were anaesthetized by pentobarbital. Their trachea was removed and sectioned in the opposite side to the site of smooth muscle in longitudinal direction. Subsequently, a strip-like preparation was obtained by […] cutting. […] A rest load of 0.5 g was used. Several washings were carried out during the incubation period of 30 minutes. The change in the tension of the tracheal smooth muscle was followed by using an isometric Grass FT-03 type tensiometer sensor device. A washing was made following the cumulative dose series of the given mediator (e.g. histamine). After reaching the base line, by 15 minutes after administration of the given concentration of the inhibitory (antiasthmatic) substance to be tested, the next cumulative dose series of the mediator was administered. In the case of an inhibitory action, the strength of effect, following the second dose series of the mediator, was […] in comparison to that of the first (control) series. For characterization of strength of the competitive antagonistic effect the pA2 value was determined according to the method of […] A pd'2 value was calculated [J. M. Van Rossum: Arch. Int.

[5] = tested on: acetylcholine-induced constriction of the isolated tracheal smooth muscle of the guinea pig; assay: Inhibition of the acetylcholine-induced constriction of isolated tracheal smooth muscle of guinea pig; details: Cavia porcellus, 0.25 h, isolated guinea pig trachea, read-out: pd'2 value against acetylcholine (converted)
Experimental: (§1) I Study on the Effects Against Spasmogenic Mediators
[modified method of J. C. Castillo et al.: Exp. Ther. 90, 104 (1947)]
(§2) The investigation on isolated organs were carried out as follows.
(§3) OHF Lt/R9 guinea pigs of both sexes weighing 300 to 400 g each were anaesthetized by pentobarbital. Their trachea was removed and sectioned in the opposite side to the site of smooth muscle in longitudinal direction. Subsequently, a strip-like preparation was obtained by serrately cutting.
The organ was suspended in an organ bath containing 35 ml of Krebs solution at 37° C. bubbled through by carbogen gas (consisting of 95% of oxygen and 5% of carbon dioxide).
(§4) A rest load of 0.5 g was used. Several washings were carried out during the incubation period of 30 minutes.
(§5) The change in the tension of the tracheal smooth muscle was followed by using an isometric Grass FT-03 type tensiometer sensor device. A washing was made following the cumulative dose series of the given mediator (e.g. histamine). After reaching the base line, by 15 minutes after administration of the given concentration of the inhibitory (antiasthmatic) substance to be tested, the next cumulative dose series of the mediator was administered. In the case of an inhibitory action, the strength of effect, following the second dose series of the mediator, was […] in comparison to that of the first (control) series.
For characterization of strength of the competitive antagonistic effect the pA2 value was determined according to the method of Schield [Br. J. Pharmacol. 4, 277 (1949)]. A pd'2 value was calculated [J. M. Van Rossum: Arch. Int. Pharmacodyn 143, 317 (1963)] to characterize the noncompatitive antagonistic effectivity. The higher the pA2 or pd'2 value, respectively were, the higher was the antagonistic effect.

[6] = tested on: serotonin-induced constriction of the isolated tracheal smooth muscle of the guinea pig; assay: Inhibition of the serotonin-induced constriction of isolated tracheal smooth muscle of guinea pig; details: isolated guinea pig trachea; for pd'2 value against serotonin: 15 min
Experimental: as §1
[modified method of J. C.
as §2, §3, §4, §5
A pd'2 value was calculated [J. M. Van Rossum: Arch. Int. […] The higher the pA2 or pd'2 value, respectively were, the higher was the antagonistic effect.

SMILES: COc1ccc2cc([C@H](C)C(=O)O)ccc2c1 [Naproxen, reference compound]
- Protective effect % ([1]; oral dose 20 mg/kg (Naproxen), 30 minutes): 16.9%
- Protective effect % ([1]; oral dose 20 mg/kg (Naproxen), 60 minutes): 20.1%
- Protective effect % ([1]; oral dose 20 mg/kg (Naproxen), 90 minutes): 18.9%
- Protective effect % ([1]; oral dose 20 mg/kg (Naproxen), 120 minutes): 23.3%
- Protective effect % ([1]; oral dose 20 mg/kg (Naproxen), 180 minutes): 21.6%
- Protective effect % ([2]; 1.5 hours): 33.2%
- Protective effect % ([2]; 3 hours): 44.3%
- Protective effect % ([2]; 4.5 hours): 40.4%
- Protective effect % in the 30th minute ([3]; oral dose 30 mg/kg (Naproxen)): 2.2%

SMILES: Cn1c(=O)c2[nH]cnc2n(C)c1=O [theophylline, reference compound]
- IC50 [4]: 1.58 µM
- IC50 [5]: 0.372 µM
- pd'2 value against serotonin [6]: 6.16
- pd'2 value against serotonin ([6]; listed as Theophylline): 6.49

SMILES: NC1=NN(c2cccc(C(F)(F)F)c2)CC1 [BW 755C, reference compound]
- Protective effect % ([1]; oral dose 50 mg/kg (BW-755C), 30 minutes): 15.4%
- Protective effect % ([1]; oral dose 50 mg/kg (BW-755C), 60 minutes): 12.3%
- Protective effect % ([1]; oral dose 50 mg/kg (BW-755C), 90 minutes): 17.2%
- Protective effect % ([1]; oral dose 50 mg/kg (BW-755C), 120 minutes): 7.9%
- Protective effect % ([1]; oral dose 50 mg/kg (BW-755C), 180 minutes): 11.3%
- Protective effect % in the 30th minute ([3]; oral dose 50 mg/kg (BW 755C)): 52.9%

SMILES: C[C@@H]1C[C@H]2[C@@H]3CCC4=CC(=O)C=C[C@]4(C)[C@@]3(F)[C@@H](O)C[C@]2(C)[C@@]1(O)C(=O)CO [Dexamethasone, dexamethasone, reference compound]
- Protective effect % ([1]; oral dose 0.5 mg/kg (dexamethasone), 30 minutes): 42.7%
- Protective effect % ([1]; oral dose 0.5 mg/kg (dexamethasone), 60 minutes): 36.8%
- Protective effect % ([1]; oral dose 0.5 mg/kg (dexamethasone), 90 minutes): 51.1%
- Protective effect % ([1]; oral dose 0.5 mg/kg (dexamethasone), 120 minutes): 52.1%
- Protective effect % ([1]; oral dose 0.5 mg/kg (dexamethasone), 180 minutes): 45.5%
- Protective effect % in the 30th minute ([3]; oral dose 0.5 mg/kg (Dexamethasone)): 45.5%

SMILES: CCOc1cc2c(cc1OCC)C(=C(C#N)SCC(CN1CCOCC1)OC(C)=O)NCC2 (centres unmarked) [Example 24, 2-(6,7-diethoxy-1,2,3,4-tetrahydro-1-isoquinolinylidene)-2-[2-acetoxy-3-(4-morpholinyl)propyl]mercaptoacetonitrile]
- IC50 [4]: 1.17 µM
- change in vivo at 50 mg/kg ([2]; 1.5 hours): -25.8%
- change in vivo at 50 mg/kg ([2]; 3 hours): -20.3%
- change in vivo at 50 mg/kg ([2]; 4.5 hours): -20%
- IC50 [5]: 9.55 µM
- IC50 ([6]; Cavia porcellus, 0.25 h, read-out: pd'2 value against serotonin (converted)): 8.91 µM

Now from value to molecule, other results behind:

- IC50 [4]: 1.82 µM
SMILES: COc1cc2c(cc1OC)C(=C(C#N)SCC(O)CN1CCOCC1)NCC2 (centres unmarked) [Example 17, 2-(6,7-dimethoxy-1,2,3,4-tetrahydro-1-isoquinolinylidene)-2-[2-hydroxy-3-(4-morpholinyl)propyl]mercaptoacetonitrile hydrochloride]
- Percentage of inhibition ([1]; 30 minutes): 27.5%
- Percentage of inhibition ([1]; 60 minutes): 32.5%
- Percentage of inhibition ([1]; 90 minutes): 32.1%
- Percentage of inhibition ([1]; 120 minutes): 32.4%
- Percentage of inhibition ([1]; 180 minutes): 20.3%
- change in vivo at 50 mg/kg ([2]; 1.5 hours): -4.2%
- change in vivo at 50 mg/kg ([2]; 3 hours): 0%
- change in vivo at 50 mg/kg ([2]; 4.5 hours): 0%
- Percentage of inhibition of the active local anaphylactic reaction [3]: -53.4%

- IC50 [4]: 26.3 µM
SMILES: N#CC(SCC(O)CN1CCCCC1)=C1NCCc2ccccc21 (centres unmarked) [Example 14, 2-(1,2,3,4-tetrahydro-1-isoquinolinylidene)-2-[2-hydroxy-3-(1-piperidinyl)propyl]mercaptoacetonitrile]
- change in vivo at 50 mg/kg ([2]; 1.5 hours): -20.9%
- change in vivo at 50 mg/kg ([2]; 3 hours): -20%
- change in vivo at 50 mg/kg ([2]; 4.5 hours): -20%
- Percentage of inhibition of the active local anaphylactic reaction [3]: -44.1%

- IC50 [4]: 8.71 µM
- IC50 [5]: 15.5 µM
SMILES: CCOc1cc2c(cc1OCC)C(=C(C#N)SCC(CN1CCOCC1)OC(=O)c1ccccc1)NCC2 (centres unmarked) [Example 26, 2-(6,7-diethoxy-1,2,3,4-tetrahydro-1-isoquinolinylidene)-2-[2-benzoyloxy-3-(4-morpholinyl)-propyl]mercaptoacetonitrile hydrochloride]

- IC50 [4]: 0.417 µM
- IC50 [5]: 15.5 µM
SMILES: COc1cc2c(cc1OC)C(=C(C#N)SCC(CN1CCOCC1)OC(=O)c1ccccc1)NCC2 (centres unmarked) [Example 25, 2-(6,7-dimethoxy-1,2,3,4-tetrahydro-1-isoquinolinylidene)-2-[2-benzoyloxy-3-(4-morpholinyl)propyl]mercaptoacetonitrile]
- change in vivo at 50 mg/kg ([2]; 1.5 hours): -26.6%
- change in vivo at 50 mg/kg ([2]; 3 hours): -17.7%
- change in vivo at 50 mg/kg ([2]; 4.5 hours): -16%

- IC50 [4]: 12.3 µM
SMILES: CCOc1cc2c(cc1OCC)C(=C(C#N)SCC(O)CN(CC)CC)NCC2 (centres unmarked) [Example 2, 2-(6,7-diethoxy-1,2,3,4-tetrahydro-1-isoquinolinylidene)-2-(3-diethylamino-2-hydroxypropyl)-mercaptoacetonitrile hydrochloride]
- Percentage of inhibition ([1]; 30 minutes): -24%
- Percentage of inhibition ([1]; 60 minutes): -21%
- Percentage of inhibition ([1]; 90 minutes): -25%
- Percentage of inhibition ([1]; 120 minutes): -23%
- Percentage of inhibition ([1]; 180 minutes): -17%
- change in vivo at 50 mg/kg ([2]; 1.5 hours): -22.9%
- change in vivo at 50 mg/kg ([2]; 3 hours): -20.6%
- change in vivo at 50 mg/kg ([2]; 4.5 hours): -11.3%
